Data set [1] in a line: reversion of anhydrate to monohydrate under humidity. Format: physicochemical. The settings on record: 25° C. The procedure: (§1) (The anhydrate of form I reverts to the monohydrate at 25° C./70% RH, while the anhydrate of form II reverts to the monohydrate at 25° C./90% RH).
Data set [2] in a line: relative thermodynamic stability of crystalline forms. Format: physicochemical. The settings on record: comparison of form II with form I of the same hydration state. The procedure: as §1
Data set [3] is described as follows: thermal decomposition studies. Format: physicochemical. The following applies: based on thermal decomposition studies; monohydrate form II vs anhydrous form II.
Data set [4] has as its target GABAA receptors comprising α4 and δ subunits (Homo sapiens, UniProt O14764+P28472+P48169). The settings on record: Brown et al, British J. Pharmacol., 136, 965-74 (2002); cited from earlier work.

GABAA receptors comprising α4 and δ subunits, sequence (P48169 36-554): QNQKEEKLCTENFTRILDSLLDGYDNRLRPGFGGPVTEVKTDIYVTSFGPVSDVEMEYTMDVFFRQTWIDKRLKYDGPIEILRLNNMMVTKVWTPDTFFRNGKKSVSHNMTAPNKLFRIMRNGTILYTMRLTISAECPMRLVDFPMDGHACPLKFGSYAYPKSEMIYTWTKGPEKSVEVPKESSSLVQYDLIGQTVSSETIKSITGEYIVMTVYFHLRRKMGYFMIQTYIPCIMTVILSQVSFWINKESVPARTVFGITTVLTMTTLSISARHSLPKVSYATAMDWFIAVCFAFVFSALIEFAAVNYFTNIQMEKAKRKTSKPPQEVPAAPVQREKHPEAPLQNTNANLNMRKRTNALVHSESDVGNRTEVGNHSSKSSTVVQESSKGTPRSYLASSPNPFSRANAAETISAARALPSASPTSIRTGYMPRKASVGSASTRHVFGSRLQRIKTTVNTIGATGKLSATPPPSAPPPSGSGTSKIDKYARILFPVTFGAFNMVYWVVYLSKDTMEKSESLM
GABAA receptors comprising α4 and δ subunits, sequence (O14764 25-452): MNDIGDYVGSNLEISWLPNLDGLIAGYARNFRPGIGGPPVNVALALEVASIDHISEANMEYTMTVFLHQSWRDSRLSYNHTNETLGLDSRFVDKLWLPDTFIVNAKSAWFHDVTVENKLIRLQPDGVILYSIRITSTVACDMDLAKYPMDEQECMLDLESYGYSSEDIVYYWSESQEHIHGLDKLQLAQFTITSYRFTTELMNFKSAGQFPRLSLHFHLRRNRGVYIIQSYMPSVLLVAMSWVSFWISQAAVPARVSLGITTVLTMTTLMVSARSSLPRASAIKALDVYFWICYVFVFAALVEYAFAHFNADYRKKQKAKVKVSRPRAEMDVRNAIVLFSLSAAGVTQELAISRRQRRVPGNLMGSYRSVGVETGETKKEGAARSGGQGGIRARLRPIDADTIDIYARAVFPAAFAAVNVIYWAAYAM
GABAA receptors comprising α4 and δ subunits, sequence (P28472 26-473): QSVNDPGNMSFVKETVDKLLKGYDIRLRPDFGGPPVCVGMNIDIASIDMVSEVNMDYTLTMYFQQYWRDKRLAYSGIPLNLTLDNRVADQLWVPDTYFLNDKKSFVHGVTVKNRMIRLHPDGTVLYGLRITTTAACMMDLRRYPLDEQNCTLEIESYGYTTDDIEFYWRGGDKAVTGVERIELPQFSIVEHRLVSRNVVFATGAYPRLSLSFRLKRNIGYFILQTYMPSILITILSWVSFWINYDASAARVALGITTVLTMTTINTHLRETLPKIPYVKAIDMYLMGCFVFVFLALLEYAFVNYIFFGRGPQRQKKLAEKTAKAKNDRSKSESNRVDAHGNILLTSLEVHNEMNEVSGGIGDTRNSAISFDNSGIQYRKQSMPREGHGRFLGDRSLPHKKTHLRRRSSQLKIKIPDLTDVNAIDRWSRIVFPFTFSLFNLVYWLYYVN

As to `Oc1noc2c1CCNC2` [anhydrate of form I, 4,5,6,7-tetrahydroisoxazolo[5,4-c]pyridin-3-ol], in data set [1], the “relative humidity at which the anhydrate reverts to the monohydrate” value stood at 70 % RH.
For the compound `Oc1noc2c1CCNC2` [anhydrate of form II, 4,5,6,7-tetrahydroisoxazolo[5,4-c]pyridin-3-ol], in data set [1], the “relative humidity at which the anhydrate reverts to the monohydrate” value turned out to be 90 % RH. In addition, the “thermodynamic stability relative to the other polymorph” value in data set [2] (listed as gaboxadol anhydrate of form II) is “more stable than the anhydrate of form I”.
As for `Oc1noc2c1CCNC2` [Gaboxadol monohydrate of form II, 4,5,6,7-tetrahydroisoxazolo[5,4-c]pyridin-3-ol], the thermal profile result in data set [3] was “safer thermal profile than the anhydrous form II”. In addition, the “thermodynamic stability relative to the other polymorph” value in data set [2] is listed as “thermodynamically more stable than the monohydrate of form I”.
Take `Oc1noc2c1CCNC2` [gaboxadol, 4,5,6,7-tetrahydroisoxazolo[5,4-c]pyridin-3-ol]: the agonist potency result in data set [4] is listed as “particularly potent agonist”.

Source of the values: US8236958B2, “Polymorphic forms of a GABAA agonist” (H. Lundbeck A/S, priority 2004, dated 2012).
